# Laboratory results as given in paper PMC9090415, “Discovery of small molecule inhibitors of Plasmodium falciparum apicoplast DNA polymerase” (Journal of Enzyme Inhibition and Medicinal Chemistry, 2022).
# Target: T1, bacteriophage T4 DNA polymerase (Enterobacteria phage T4, UniProt P04415)
# T1 construct: made in house
# T1 sequence (P04415 1-898): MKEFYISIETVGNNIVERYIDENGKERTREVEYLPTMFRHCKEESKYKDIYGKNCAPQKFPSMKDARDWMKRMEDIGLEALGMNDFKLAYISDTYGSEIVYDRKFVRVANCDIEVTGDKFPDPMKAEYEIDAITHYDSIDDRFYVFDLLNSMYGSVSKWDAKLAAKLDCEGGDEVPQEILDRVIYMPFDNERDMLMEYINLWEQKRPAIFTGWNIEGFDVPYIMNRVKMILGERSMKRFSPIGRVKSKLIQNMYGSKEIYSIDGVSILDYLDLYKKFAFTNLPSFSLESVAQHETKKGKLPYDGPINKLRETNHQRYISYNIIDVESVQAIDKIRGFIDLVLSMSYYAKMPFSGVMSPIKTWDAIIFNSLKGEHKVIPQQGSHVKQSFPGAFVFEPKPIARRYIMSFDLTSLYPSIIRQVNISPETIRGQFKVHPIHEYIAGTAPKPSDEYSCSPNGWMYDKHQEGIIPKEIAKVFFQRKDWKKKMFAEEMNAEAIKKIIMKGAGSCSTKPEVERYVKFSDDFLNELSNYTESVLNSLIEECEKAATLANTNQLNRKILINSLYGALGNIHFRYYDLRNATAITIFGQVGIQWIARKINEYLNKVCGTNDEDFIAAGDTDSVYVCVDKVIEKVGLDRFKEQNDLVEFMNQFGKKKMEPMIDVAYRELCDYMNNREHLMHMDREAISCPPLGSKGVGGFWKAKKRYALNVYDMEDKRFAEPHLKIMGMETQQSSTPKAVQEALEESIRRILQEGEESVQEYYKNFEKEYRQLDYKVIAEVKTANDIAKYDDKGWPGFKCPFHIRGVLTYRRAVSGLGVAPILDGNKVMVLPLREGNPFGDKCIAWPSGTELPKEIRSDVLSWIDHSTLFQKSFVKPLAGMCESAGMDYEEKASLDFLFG
# Assay: Counter-screen against bacteriophage T4 DNA polymerase
# Format: biochemical
# Conditions: for % inhibition T4 10' 2.5 / % inhibition T4 10' 5 / % inhibition T4 10' 10 / % inhibition T4 10' 20 / % inhibition T4 10' 40 / % inhibition T4 10' 80: read at 10'
# Procedure, shortened: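 IC50 values come from dose-response testing of each compound against T4 DNA polymerase. This B-family polymerase was purified in-house and used as the counter-screen.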
structure (smiles),measurement,setting,value
"O=C(O)CCS(=O)(=O)c1ccc(-c2ccc(S(=O)(=O)CCC(=O)O)cc2)cc1 [Molecule 32, OC(=O)CCS(=O)(=O)c1ccc(cc1)c1ccc(cc1)S(=O)(=O)CCC(=O)O]",% inhibition T4 10',"DRC-2, concentration 2.5",-14%
same,% inhibition T4 40',"DRC-2, concentration 20",-22%
same,% inhibition T4 40',"DRC-2, concentration 40",-14%
same,% inhibition T4 90',"DRC-2, concentration 5",-25%
same,% inhibition T4 90',"DRC-2, concentration 20",-25%
same,% inhibition T4 90',"DRC-2, concentration 40",-17%
same,% inhibition T4 180',"DRC-2, concentration 2.5",-25%
same,% inhibition T4 180',"DRC-2, concentration 40",-22%
same,% inhibition T4 180',"DRC-2, concentration 80",-17%
Nc1cc(Oc2ccc(O)c(N)c2)ccc1O [KU0034728],% inhibition T4 10' 2.5,"DRC-1, concentration 2.5",10.6184%
same,% inhibition T4 10' 5,"DRC-1, concentration 5",9.797%
same,% inhibition T4 10' 10,"DRC-1, concentration 10",12.6946%
same,% inhibition T4 10' 20,"DRC-1, concentration 20",6.887%
same,% inhibition T4 10' 40,"DRC-1, concentration 40",15.6951%
same,% inhibition T4 10' 80,"DRC-1, concentration 80",21.8837%
same,% inhibition T4 70' 2.5,"DRC-1, read at 70', concentration 2.5",10.2077%
same,% inhibition T4 70' 5,"DRC-1, read at 70', concentration 5",9.3179%
same,% inhibition T4 70' 10,"DRC-1, read at 70', concentration 10",12.3114%
same,% inhibition T4 70' 20,"DRC-1, read at 70', concentration 20",7.7965%
same,% inhibition T4 70' 40,"DRC-1, read at 70', concentration 40",14.4419%
same,% inhibition T4 70' 80,"DRC-1, read at 70', concentration 80",19.0676%
same,% inhibition T4 130' 2.5,"DRC-1, read at 130', concentration 2.5",10.8947%
same,% inhibition T4 130' 5,"DRC-1, read at 130', concentration 5",9.975%
same,% inhibition T4 130' 10,"DRC-1, read at 130', concentration 10",11.1726%
same,% inhibition T4 130' 20,"DRC-1, read at 130', concentration 20",8.154%
same,% inhibition T4 130' 40,"DRC-1, read at 130', concentration 40",14.6568%
same,% inhibition T4 130' 80,"DRC-1, read at 130', concentration 80",18.4293%
same,% inhibition T4 10' 2.5,"DRC-2, concentration 2.5",-8.57%
same,% inhibition T4 10' 5,"DRC-2, concentration 5",-11%
same,% inhibition T4 10' 10,"DRC-2, concentration 10",-3.21%
same,% inhibition T4 10' 20,"DRC-2, concentration 20",-7%
same,% inhibition T4 10' 40,"DRC-2, concentration 40",3.18%
same,% inhibition T4 10' 80,"DRC-2, concentration 80",12%
same,% inhibition T4 40' 2.5,"DRC-2, read at 40', concentration 2.5",-8%
same,% inhibition T4 40' 5,"DRC-2, read at 40', concentration 5",-11%
same,% inhibition T4 40' 10,"DRC-2, read at 40', concentration 10",-5.5%
same,% inhibition T4 40' 20,"DRC-2, read at 40', concentration 20",-8%
same,% inhibition T4 40' 40,"DRC-2, read at 40', concentration 40",-2.76%
same,% inhibition T4 40' 80,"DRC-2, read at 40', concentration 80",-1.54%
same,% inhibition T4 90' 2.5,"DRC-2, read at 90', concentration 2.5",-7%
same,% inhibition T4 90' 5,"DRC-2, read at 90', concentration 5",-9.49%
same,% inhibition T4 90' 10,"DRC-2, read at 90', concentration 10",-3.47%
same,% inhibition T4 90' 20,"DRC-2, read at 90', concentration 20",-7%
same,% inhibition T4 90' 40,"DRC-2, read at 90', concentration 40",-4.46%
same,% inhibition T4 90' 80,"DRC-2, read at 90', concentration 80",-9%
same,% inhibition T4 180' 2.5,"DRC-2, read at 180', concentration 2.5",-11%
same,% inhibition T4 180' 5,"DRC-2, read at 180', concentration 5",-15%
same,% inhibition T4 180' 10,"DRC-2, read at 180', concentration 10",-8%
same,% inhibition T4 180' 20,"DRC-2, read at 180', concentration 20",-11%
same,% inhibition T4 180' 40,"DRC-2, read at 180', concentration 40",-7.51%
same,% inhibition T4 180' 80,"DRC-2, read at 180', concentration 80",-14%
"Cc1ccc(-n2nnc(C(=O)O)c2-c2ccccn2)c(F)c1 [Molecule 54, Cc1ccc(c(c1)F)n1nnc(c1c1ccccn1)C(=O)O]",% inhibition T4 10',"DRC-2, concentration 2.5",18%
same,% inhibition T4 10',"DRC-2, concentration 5",23%
same,% inhibition T4 10',"DRC-2, concentration 10",30%
same,% inhibition T4 10',"DRC-2, concentration 40",27%
same,% inhibition T4 10',"DRC-2, concentration 80",24%
same,% inhibition T4 40',"DRC-2, concentration 2.5",18%
same,% inhibition T4 40',"DRC-2, concentration 5",23%
same,% inhibition T4 40',"DRC-2, concentration 10",30%
same,% inhibition T4 40',"DRC-2, concentration 40",27%
same,% inhibition T4 40',"DRC-2, concentration 80",24%
same,% inhibition T4 90',"DRC-2, concentration 2.5",17%
same,% inhibition T4 90',"DRC-2, concentration 10",27%
same,% inhibition T4 90',"DRC-2, concentration 20",22%
same,% inhibition T4 90',"DRC-2, concentration 40",23%
same,% inhibition T4 90',"DRC-2, concentration 80",22%
same,% inhibition T4 180',"DRC-2, concentration 10",22%
same,% inhibition T4 180',"DRC-2, concentration 20",17%
same,% inhibition T4 180',"DRC-2, concentration 40",20%
same,% inhibition T4 180',"DRC-2, concentration 80",20%
CCOC(=O)C1=C2c3cc(OC)c(OC)cc3CC(C)(C)N2C(=O)C1=O [KU0193659],% inhibition T4 10',"DRC-2, concentration 2.5",9%
same,% inhibition T4 10',"DRC-2, concentration 5",6.54%
same,% inhibition T4 10',"DRC-2, concentration 10",23%
same,% inhibition T4 10',"DRC-2, concentration 20",29%
same,% inhibition T4 10',"DRC-2, concentration 40",38%
same,% inhibition T4 10',"DRC-2, concentration 80",45%
same,% inhibition T4 40',"DRC-2, concentration 2.5",9%
same,% inhibition T4 40',"DRC-2, concentration 5",6.54%
same,% inhibition T4 40',"DRC-2, concentration 10",23%
same,% inhibition T4 40',"DRC-2, concentration 20",29%
same,% inhibition T4 40',"DRC-2, concentration 40",38%
same,% inhibition T4 40',"DRC-2, concentration 80",45%
same,% inhibition T4 90',"DRC-2, concentration 2.5",8%
same,% inhibition T4 90',"DRC-2, concentration 40",37%
same,% inhibition T4 90',"DRC-2, concentration 80",44%
same,% inhibition T4 180',"DRC-2, concentration 2.5",9%
same,% inhibition T4 180',"DRC-2, concentration 5",8%
same,% inhibition T4 180',"DRC-2, concentration 40",37%
same,% inhibition T4 180',"DRC-2, concentration 80",44%
